Source: US6521751B1, “Recombinant nucleic acid sequences and methods for determining both genotoxicity and mutagenicity of a sample and the kinetics of the genotoxicity” (Vlaamse Instelling voor Technologisch Onderzoek (VITO), priority 1998, dated 2003)
Several values for one entry are separate records, joined by “and”; a condition that tells them apart may be missing. Equal values may be shown once. Read-outs that look alike come from different tables or passages of the source.

Key:
[1] = test system: TA 98 and TA104 strains containing pMOL1067 or pMOL1068
S. typhimurium = settings: cited from earlier work
[2] = test system: novel biosensor systems in E. coli and in S. typhimurium strains; assay: Subject SOS promoter-lux systems (general statements); settings: for result in the novel systems according to the invention: agents known to give false negative results in the SOS chromotest and the Ames test
[3] = test system: TA98 and TA104 strains containing pMOL890, pMOL1067 or pMOL1068; assay: Test with the TA98 and TA104 strains containing pMOL890, pMOL1067 or pMOL1068
E. coli (sfiA-lacZ) = settings: cited from earlier work
[4] = test system: S. typhimurium TA104 containing pMOL1066
[5] = test system: S. typhimurium TA104 containing pMOL1067
[6] = test system: S. typhimurium TA104 containing pMOL1068
[7] = test system: S. typhimurium TA104 containing pMOL1069
[8] = test system: S. typhimurium TA98 containing pMOL1067
[9] = test system: S. typhimurium TA98 containing pMOL1068
[10] = test system: S. typhimurium TA98 containing pMOL890
[11] = test system: S. typhimurium TA104 containing pMOL890
[12] = test system: S. typhimurium TA98* containing pMOL890
[13] = test system: S. typhimurium TA100* containing pMOL890
[14] = test system: S. typhimurium TA104* containing pMOL890
[15] = TA 98 and TA104 strains containing pMOL1067 or pMOL1068
[16] = SOS chromotest, literature values

Compound: O=C(N/N=C/c1ccc([N+](=O)[O-])o1)c1ccc(O)cc1 [Nifuroxazide]
- OUTCOME (genotoxicity, final outcome) [1, 15]: pos
- AMES (result) (S. typhimurium; Ames test, Table 3): pos

Compound: CCn1cc(C(=O)O)c(=O)c2ccc(C)nc21 [Nalidixic acid]
- OUTCOME (genotoxicity, final outcome) [1, 15]: pos
- AMES (result) (S. typhimurium): neg
- result in the Ames test (S. typhimurium): False-negative
- result in the novel systems according to the invention [2]: positive
- result in the test (genotoxicity) [3]: positive

Compound: Oc1c(Cl)c(Cl)c(Cl)c(Cl)c1Cl [Pentachlorophenole]
- SOS (result) (E. coli (sfiA-lacZ)): pos

Compound: ClCC1CO1 (centres unmarked) [Epichlorohydrine]
- OUTCOME (genotoxicity, final outcome) [1]: pos
- SOS (result) (E. coli (sfiA-lacZ)): pos
- AMES (result) (S. typhimurium): pos

Compound: c1ccc2ccccc2c1 [Naphtalene]
- OUTCOME (genotoxicity, final outcome) [1]: neg
- SOS (result) (E. coli (sfiA-lacZ)): neg

Compound: 4-nitroquinoline-N-oxyde [4-NQO]
- OUTCOME (genotoxicity, final outcome) [1]: pos
- MINIMAL DETECTED CONCENTRATION (MDC) (E. coli (sfiA-lacZ)): 0.006 nmol/assay
- SOS (result) (E. coli (sfiA-lacZ)): pos

Compound: [Cl-].[Cl-].[Zn+2] [ZnCl2]
- OUTCOME (genotoxicity, final outcome) [1]: neg
- SOS (result) (E. coli (sfiA-lacZ)): neg
- AMES (result) (S. typhimurium): neg

Compound: CO[C@@]12[C@H](COC(N)=O)C3=C(C(=O)C(C)=C(N)C3=O)N1C[C@@H]1N[C@@H]12 [Mitomycin C]
- level that can be detected ([2]; subject systems): 7 ng/mL

Compound: [Cl][Cd][Cl] [CdCl2]
- MINIMAL DETECTED CONCENTRATION (MDC) [4]: neg
- MINIMAL DETECTED CONCENTRATION (MDC) [5]: neg
- MINIMAL DETECTED CONCENTRATION (MDC) [6]: neg
- MINIMAL DETECTED CONCENTRATION (MDC) [7]: neg
- MINIMAL DETECTED CONCENTRATION (MDC) [8]: neg
- MINIMAL DETECTED CONCENTRATION (MDC) [9]: neg
- MINIMAL DETECTED CONCENTRATION (MDC) [10]: neg
- MINIMAL DETECTED CONCENTRATION (MDC) [11]: neg
- OUTCOME (genotoxicity, final outcome) [1]: neg
- MINIMAL DETECTED CONCENTRATION (MDC) (E. coli (sfiA-lacZ)): neg
- SOS (result) (E. coli (sfiA-lacZ)): neg
- AMES (result) (S. typhimurium): neg
- MINIMAL DETECTED CONCENTRATION (MDC) (S. typhimurium): neg

Compound: COC(=O)N/N=C/c1c[n+]([O-])c2ccccc2[n+]1[O-] [Carbadox]
- OUTCOME (genotoxicity, final outcome) [1, 15]: pos
- SOS (result) (E. coli (sfiA-lacZ); SOS chromotest, Table 3): pos
- AMES (result) (S. typhimurium; Ames test, Table 3): pos

Compound: c1ccc2cc3ccccc3cc2c1 [Anthracene]
- OUTCOME (genotoxicity, final outcome) [1, 15]: neg
- SOS (result) (E. coli (sfiA-lacZ); SOS chromotest, Table 3): neg
- AMES (result) (S. typhimurium): neg

Compound: CCOS(C)(=O)=O [Ethylmethanesulphonate]
- OUTCOME (genotoxicity, final outcome) [1]: pos
- SOS (result) (E. coli (sfiA-lacZ)): pos
- AMES (result) (S. typhimurium): pos

Compound: NN [Hydrazine]
- OUTCOME (genotoxicity, final outcome) [1, 15]: pos
- SOS (result) (E. coli (sfiA-lacZ); SOS chromotest, Table 3): pos
- AMES (result) (S. typhimurium): pos

Compound: c1ccc2c(c1)cc1ccc3cccc4ccc2c1c34 [BαP, benzo-α-pyrene]
- Number of His^+ revertants ([12]; BαP 10 mmol + S9): 24
- Number of His^+ revertants ([12]; BαP 50 mmol − S9): 0
- Number of His^+ revertants ([12]; BαP 200 mmol + S9): 49 and 50
- Number of His^+ revertants ([12]; BαP 200 mmol − S9): 0
- Number of His^+ revertants ([12]; BαP 600 mmol + S9): 29 and 33
- Number of His^+ revertants ([12]; BαP 600 mmol − S9): 0
- Number of His^+ revertants ([13]; BαP 10 mmol + S9): 67 and 80
- Number of His^+ revertants ([13]; BαP 50 mmol + S9): 64 and 54
- Number of His^+ revertants ([13]; BαP 50 mmol − S9): 15 and 11
- Number of His^+ revertants ([13]; BαP 200 mmol + S9): 59 and 58
- Number of His^+ revertants ([13]; BαP 600 mmol + S9): 74 and 73
- Number of His^+ revertants ([13]; BαP 600 mmol − S9): 6 and 3
- Number of His^+ revertants ([14]; BαP 50 mmol + S9): 82 and 85
- Number of His^+ revertants ([14]; BαP 50 mmol − S9): 29 and 27
- Number of His^+ revertants ([14]; BαP 200 mmol + S9): 87
- Number of His^+ revertants ([14]; BαP 200 mmol − S9): 26 and 32
- Number of His^+ revertants ([14]; BαP 600 mmol + S9): 57 and 69
- Number of His^+ revertants ([14]; BαP 600 mmol − S9): 21 and 19
- MINIMAL DETECTED CONCENTRATION (MDC) ([4]; TA104 pMOL1066): 0.16 nmol/assay
- MINIMAL DETECTED CONCENTRATION (MDC) ([5]; TA104 pMOL1067): 0.079 nmol/assay
- MINIMAL DETECTED CONCENTRATION (MDC) ([6]; TA104 pMOL1068): 0.16 nmol/assay
- MINIMAL DETECTED CONCENTRATION (MDC) ([7]; TA104 pMOL1069): 0.16 nmol/assay
- MINIMAL DETECTED CONCENTRATION (MDC) ([8]; TA98 pMOL1067): 0.16 nmol/assay
- MINIMAL DETECTED CONCENTRATION (MDC) ([9]; TA98 pMOL1068): 0.16 nmol/assay
- MINIMAL DETECTED CONCENTRATION (MDC) ([10]; TA98 pMOL890): 1.59 nmol/assay
- MINIMAL DETECTED CONCENTRATION (MDC) ([11]; TA104 pMOL890): 0.32 nmol/assay
- OUTCOME (genotoxicity, final outcome) [1, 15]: pos
- SOS (result) (E. coli (sfiA-lacZ); SOS chromotest, Table 3): pos
- MINIMAL DETECTED CONCENTRATION (MDC) (E. coli (sfiA-lacZ); [16]): 0.7 nmol/assay

Compound: Cl[C@H]1[C@H](Cl)[C@@H](Cl)[C@@H](Cl)[C@H](Cl)[C@H]1Cl [Lindane]
- OUTCOME (genotoxicity, final outcome) [1, 15]: neg
- SOS (result) (E. coli (sfiA-lacZ); SOS chromotest, Table 3): neg
- AMES (result) (S. typhimurium): neg

Compound: CCCCCCCCCCCCOS(=O)(=O)[O-].[Na+] [Sodium Dodecyl Sulphate]
- OUTCOME (genotoxicity, final outcome) [1, 15]: neg
- AMES (result) (S. typhimurium; Ames test, Table 3): neg

Compound: CCN(CC)N=O [N-Nitrosodiethylamine]
- OUTCOME (genotoxicity, final outcome) [1, 15]: pos
- SOS (result) (E. coli (sfiA-lacZ); SOS chromotest, Table 3): pos
- AMES (result) (S. typhimurium): pos

Compound: S=C1NCCN1 [Ethylenethiourea]
- AMES (result) (S. typhimurium): pos

Compound: CNC(=O)Oc1cccc2ccccc12 [Carbaryl]
- SOS (result) (E. coli (sfiA-lacZ)): pos

Compound: c1ccc2c(c1)ccc1c3ccccc3ccc21 [chrysene]
- MINIMAL DETECTED CONCENTRATION (MDC) ([4]; TA104 pMOL1066): 1.095 nmol/assay
- MINIMAL DETECTED CONCENTRATION (MDC) ([5]; TA104 pMOL1067): 0.55 nmol/assay
- MINIMAL DETECTED CONCENTRATION (MDC) ([6]; TA104 pMOL1068): 1.095 nmol/assay
- MINIMAL DETECTED CONCENTRATION (MDC) ([7]; TA104 pMOL1069): 0.55 nmol/assay
- MINIMAL DETECTED CONCENTRATION (MDC) ([8]; TA98 pMOL1067): 5.5 nmol/assay
- MINIMAL DETECTED CONCENTRATION (MDC) ([9]; TA98 pMOL1068): 5.5 nmol/assay
- MINIMAL DETECTED CONCENTRATION (MDC) ([10]; TA98 pMOL890): 2.2 nmol/assay
- MINIMAL DETECTED CONCENTRATION (MDC) ([11]; TA104 pMOL890): 2.2 nmol/assay
- OUTCOME (genotoxicity, final outcome) [1, 15]: pos
- SOS (result) (E. coli (sfiA-lacZ); SOS chromotest, Table 3): pos
- MINIMAL DETECTED CONCENTRATION (MDC) (E. coli (sfiA-lacZ); [16]): 11 nmol/assay
- AMES (result) (S. typhimurium): pos
- MINIMAL DETECTED CONCENTRATION (MDC) (S. typhimurium): pos

Compound: c1cc2ccc3cccc4ccc(c1)c2c34 [Pyrene]
- OUTCOME (genotoxicity, final outcome) [1, 15]: pos
- AMES (result) (S. typhimurium): neg
- result in the Ames test (S. typhimurium): False-negative
- result in the novel systems according to the invention [2]: positive
- result in the test (genotoxicity) [3]: positive

Compound: CN(Cc1cnc2nc(N)nc(N)c2n1)c1ccc(C(=O)N[C@@H](CCC(=O)O)C(=O)O)cc1 [Methotrexate]
- OUTCOME (genotoxicity, final outcome) [1, 15]: pos
- SOS (result) (E. coli (sfiA-lacZ); SOS chromotest, Table 3): pos
- AMES (result) (S. typhimurium; Ames test, Table 3): pos

Compound: COc1ccc2nc3cc(Cl)ccc3c(NCCCNCCCl)c2c1 [ICR191]
- MINIMAL DETECTED CONCENTRATION (MDC) ([4]; Salmonella typhimurium): 1.1 nmol/assay
- MINIMAL DETECTED CONCENTRATION (MDC) ([5]; Salmonella typhimurium): 0.55 nmol/assay
- MINIMAL DETECTED CONCENTRATION (MDC) ([6]; Salmonella typhimurium): 0.55 nmol/assay
- MINIMAL DETECTED CONCENTRATION (MDC) ([7]; Salmonella typhimurium): 1.1 nmol/assay
- MINIMAL DETECTED CONCENTRATION (MDC) ([8]; Salmonella typhimurium): 0.28 nmol/assay
- MINIMAL DETECTED CONCENTRATION (MDC) ([9]; Salmonella typhimurium): 0.14 nmol/assay
- MINIMAL DETECTED CONCENTRATION (MDC) ([10]; Salmonella typhimurium): 0.14 nmol/assay
- MINIMAL DETECTED CONCENTRATION (MDC) ([11]; Salmonella typhimurium): 0.14 nmol/assay
- OUTCOME (genotoxicity, final outcome) [1]: pos
- MINIMAL DETECTED CONCENTRATION (MDC) (E. coli (sfiA-lacZ)): 0.13 nmol/assay
- SOS (result) (E. coli (sfiA-lacZ)): pos
- AMES (result) (S. typhimurium): pos
- MINIMAL DETECTED CONCENTRATION (MDC) (S. typhimurium): pos

Compound: [N-]=[N+]=[N-] [Sodiumazide]
- OUTCOME (genotoxicity, final outcome) [1, 15]: pos
- SOS (result) (E. coli (sfiA-lacZ); SOS chromotest, Table 3): neg
- result in the SOS chromotest (E. coli (sfiA-lacZ); text b126): negative
- AMES (result) (S. typhimurium): pos
- result in the novel systems according to the invention [2]: positive
- result in the test (genotoxicity) [3]: positive

Compound: O=P1(N(CCCl)CCCl)NCCCO1 (centres unmarked) [Cyclophosphamide]
- OUTCOME (genotoxicity, final outcome) [1]: neg
- SOS (result) (E. coli (sfiA-lacZ)): neg
- AMES (result) (S. typhimurium): pos
- result in the test (genotoxicity) [3]: negative
